The source made the active and inactive calls.
Assays:
[1] = luciferase reporter signal suppression in cells – H4 neuroglioma cells, luminescence, dose response (AID 1990); type: functional, cell-based
[2] = Luminescence Cell-Based Dose Response HTS to Identify Inhibitors of 5'UTR Stem-Loop Driven Prion Protein mRNA Translation in H4 Neuroglioblastoma Cells. [Related pubchem assays: 1827 (Project Summary), 1813 (Primary HTS)]; type: functional
[3] = alpha-synuclein stem-loop luciferase translation blockers – H4 neuroglioma cells, luminescence, confirmation (AID 1988); type: functional, cell-based
[4] = viability of uninfected HEp-2 cells – cell-based, HTS, cytotoxicity control for RSV inhibitor project, dose response (AID 2410); type: functional; conditions: human respiratory syncytial virus
[5] = tested on: Streptococcus sp. 'group A'; test: Streptococcus pyogenes SK(-)GAS viability under kanamycin – luminescence, BacTiterGlo, confirmation, counter-screen for streptokinase expression inhibitor project, dose response (AID 1900); type: functional, organism-based
Streptokinase A = target: T1, Streptokinase A (Streptococcus pyogenes serotype M1, UniProt P10520); test: viability-normalized secreted streptokinase activity reduction – plasminogen activation absorbance, OD405, dose response (AID 1914); type: functional, Streptococcus pyogenes M1 GAS;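 further: secreted streptokinase activity via plasminogen activation per viability signal from cell pellet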
T1 sequence (P10520 whole entry): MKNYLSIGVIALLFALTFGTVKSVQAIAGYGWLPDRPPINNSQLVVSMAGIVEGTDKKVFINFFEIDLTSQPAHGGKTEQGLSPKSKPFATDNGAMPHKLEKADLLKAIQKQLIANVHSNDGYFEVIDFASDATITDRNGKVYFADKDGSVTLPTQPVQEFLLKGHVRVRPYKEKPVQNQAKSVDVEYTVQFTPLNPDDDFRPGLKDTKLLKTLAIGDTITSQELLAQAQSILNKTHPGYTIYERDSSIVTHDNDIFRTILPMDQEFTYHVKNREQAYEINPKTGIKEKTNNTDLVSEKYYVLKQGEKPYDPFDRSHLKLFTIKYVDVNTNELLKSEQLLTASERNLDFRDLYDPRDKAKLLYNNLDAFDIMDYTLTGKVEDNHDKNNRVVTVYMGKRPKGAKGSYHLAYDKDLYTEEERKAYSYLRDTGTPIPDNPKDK

Streptococcus = test: GAS UMAA2166 growth inhibition – luminescence, BacTiterGlo, counter-screen for streptokinase expression inhibitor project, dose response (AID 1915); type: functional, organism-based;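 further: potency for reduction of bacterial viability or growth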
[6] = target: Luciferin 4-monooxygenase (Photinus pyralis, UniProt P08659); test: inhibition of purified Photinus pyralis luciferase – biochemical, luminescence, dose response (AID 1891)
[7] = Luminescence Cell-Based Dose Confirmation HTS to Identify Inhibitors of Platelet Dense Granule Release. [Related pubchem assays: 1663 (Primary HTS), 1678 (Summary of Project)]; type: functional
[8] = Trypanosoma cruzi growth suppression in host cells – NIH3T3 host cells, beta-gal luminescence, confirmation (AID 2044); type: functional, cell-based;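 further: intracellular parasites grown in NIH/3T3 mouse fibroblasts as host cells; luminescent beta-galactosidase reporter signal from transgenic T. cruzi replicating inside host cells; inhibitors lower the luminescence signal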
[9] = NIH3T3 cell viability loss – ATP luminescence, mouse fibroblasts, counter-screen, dose response (AID 2010); type: functional, cell-based;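 further: cells exposed to compound for about 90 hours before reading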
[10] = target: T2, RNA-binding protein pos-1 (Caenorhabditis elegans, UniProt G5EF15); test: disruptors of C. elegans POS-1 RNA interaction – biochemical, fluorescence polarization, dose response (AID 1964);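 further: purified POS-1 fused to maltose binding protein made in E. coli; potency of compounds blocking POS-1 binding to fluorescent RNA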
T2 sequence (G5EF15 whole entry): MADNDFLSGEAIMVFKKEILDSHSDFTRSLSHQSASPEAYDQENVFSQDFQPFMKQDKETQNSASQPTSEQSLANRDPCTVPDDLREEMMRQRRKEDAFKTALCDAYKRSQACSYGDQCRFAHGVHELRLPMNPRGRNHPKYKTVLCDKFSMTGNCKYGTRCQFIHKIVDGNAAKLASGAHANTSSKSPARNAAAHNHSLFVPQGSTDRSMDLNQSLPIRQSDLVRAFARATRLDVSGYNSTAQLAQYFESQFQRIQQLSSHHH

[11] = target: T3, Zinc finger protein mex-5 (Caenorhabditis elegans, UniProt Q9XUB2); test: potency of MEX-5 RNA-binding blockers – biochemical, C. elegans, fluorescence polarization, dose response (AID 1960)
T3 sequence (Q9XUB2 whole entry): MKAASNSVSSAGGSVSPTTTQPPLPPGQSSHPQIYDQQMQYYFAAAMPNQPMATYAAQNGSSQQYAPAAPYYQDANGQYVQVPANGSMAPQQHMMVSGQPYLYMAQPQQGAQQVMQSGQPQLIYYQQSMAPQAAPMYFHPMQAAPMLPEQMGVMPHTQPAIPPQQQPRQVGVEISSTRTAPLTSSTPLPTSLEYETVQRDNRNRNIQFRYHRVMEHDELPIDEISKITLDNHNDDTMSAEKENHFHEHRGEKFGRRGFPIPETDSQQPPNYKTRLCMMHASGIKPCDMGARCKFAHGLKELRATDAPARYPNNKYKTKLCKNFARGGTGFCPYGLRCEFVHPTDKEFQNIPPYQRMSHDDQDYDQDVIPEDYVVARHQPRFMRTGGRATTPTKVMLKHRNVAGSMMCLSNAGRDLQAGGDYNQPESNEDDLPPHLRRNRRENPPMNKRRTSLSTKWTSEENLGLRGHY

[12] = target: T4, Replicative DNA helicase DnaB (Mycobacterium tuberculosis, UniProt P9WMR3); test: DnaB intein splicing inhibitors, dose response, biochemical, cell-free fluorescence (AID 449749); type: functional
T4 sequence (P9WMR3 whole entry): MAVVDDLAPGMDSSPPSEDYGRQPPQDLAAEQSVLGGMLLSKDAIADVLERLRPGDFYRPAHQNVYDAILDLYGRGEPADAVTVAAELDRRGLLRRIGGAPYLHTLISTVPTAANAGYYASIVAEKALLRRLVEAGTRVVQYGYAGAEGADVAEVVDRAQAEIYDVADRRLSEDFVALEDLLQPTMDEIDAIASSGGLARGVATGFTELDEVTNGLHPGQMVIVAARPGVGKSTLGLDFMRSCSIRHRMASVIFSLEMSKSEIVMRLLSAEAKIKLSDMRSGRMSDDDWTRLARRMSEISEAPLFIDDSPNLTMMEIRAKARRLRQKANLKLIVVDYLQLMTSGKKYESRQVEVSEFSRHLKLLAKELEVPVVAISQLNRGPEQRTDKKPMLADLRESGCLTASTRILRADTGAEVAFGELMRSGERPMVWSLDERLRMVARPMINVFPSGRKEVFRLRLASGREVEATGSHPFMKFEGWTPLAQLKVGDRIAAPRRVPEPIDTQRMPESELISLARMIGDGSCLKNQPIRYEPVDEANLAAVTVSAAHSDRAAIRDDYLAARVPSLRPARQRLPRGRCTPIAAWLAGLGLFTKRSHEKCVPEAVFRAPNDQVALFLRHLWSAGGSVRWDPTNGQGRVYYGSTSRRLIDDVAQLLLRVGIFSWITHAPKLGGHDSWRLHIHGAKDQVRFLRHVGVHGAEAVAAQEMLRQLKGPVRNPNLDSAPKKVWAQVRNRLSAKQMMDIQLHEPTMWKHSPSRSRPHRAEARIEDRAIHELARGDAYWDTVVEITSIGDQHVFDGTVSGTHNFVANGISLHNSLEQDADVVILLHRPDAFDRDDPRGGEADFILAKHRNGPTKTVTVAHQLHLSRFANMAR

Protein RecA = target: T5, Protein RecA (Mycobacterium tuberculosis, UniProt P9WHJ3); test: Fluorescence Cell-Free Homogeneous Dose Retest to Identify Inhibitors of RecA-Intein Splicing Activity. [Related pubchem assays (depositor defined):AID2097, AID2223, AID489010, AID492950]; type: functional
T5 sequence (P9WHJ3 whole entry): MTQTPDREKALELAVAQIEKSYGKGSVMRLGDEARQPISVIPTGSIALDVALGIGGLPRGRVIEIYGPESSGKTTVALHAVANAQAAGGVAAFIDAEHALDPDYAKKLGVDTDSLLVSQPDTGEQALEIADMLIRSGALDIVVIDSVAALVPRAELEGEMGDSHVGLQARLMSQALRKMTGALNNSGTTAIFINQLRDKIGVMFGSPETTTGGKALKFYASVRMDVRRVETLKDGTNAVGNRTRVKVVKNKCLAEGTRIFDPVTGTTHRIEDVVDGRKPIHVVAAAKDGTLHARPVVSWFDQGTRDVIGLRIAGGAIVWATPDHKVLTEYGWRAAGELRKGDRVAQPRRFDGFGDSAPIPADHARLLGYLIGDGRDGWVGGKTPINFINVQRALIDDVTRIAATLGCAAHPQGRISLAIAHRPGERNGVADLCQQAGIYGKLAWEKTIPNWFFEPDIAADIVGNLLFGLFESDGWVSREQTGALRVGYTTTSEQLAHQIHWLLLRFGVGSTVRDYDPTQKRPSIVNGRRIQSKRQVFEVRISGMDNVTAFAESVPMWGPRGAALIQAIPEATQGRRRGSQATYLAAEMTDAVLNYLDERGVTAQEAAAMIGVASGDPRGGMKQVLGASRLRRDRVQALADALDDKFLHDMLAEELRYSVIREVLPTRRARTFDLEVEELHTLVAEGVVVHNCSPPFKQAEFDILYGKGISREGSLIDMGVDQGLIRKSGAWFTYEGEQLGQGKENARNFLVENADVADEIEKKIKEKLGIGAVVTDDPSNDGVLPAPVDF

[13] = Luminescence Cell-Based Dose Retest to Confirm Inhibitors of Cancer Stem Cells. [Related pubchem assays (depositor defined):AID2717, AID2721]; type: functional; conditions: Homo sapiens
Cytochrome P450 2C19 = Cytochrome P450 2C19 (Homo sapiens, UniProt P33261); test: Cytochrome panel assay with activity outcomes. Panel member name: p450-cyp2c19 Compounds with AC50 equal or less than 10 uM are considered active; type: functional; conditions: read-out: AC50
Cytochrome P450 2D6 = Cytochrome P450 2D6 (Homo sapiens, UniProt P10635);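 further: CYP2D6 member of a cytochrome P450 panel assay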
Cytochrome P450 2C9 = Cytochrome P450 2C9 (Homo sapiens, UniProt P11712)
Sequence of Cytochrome P450 2C9 (P11712 whole entry): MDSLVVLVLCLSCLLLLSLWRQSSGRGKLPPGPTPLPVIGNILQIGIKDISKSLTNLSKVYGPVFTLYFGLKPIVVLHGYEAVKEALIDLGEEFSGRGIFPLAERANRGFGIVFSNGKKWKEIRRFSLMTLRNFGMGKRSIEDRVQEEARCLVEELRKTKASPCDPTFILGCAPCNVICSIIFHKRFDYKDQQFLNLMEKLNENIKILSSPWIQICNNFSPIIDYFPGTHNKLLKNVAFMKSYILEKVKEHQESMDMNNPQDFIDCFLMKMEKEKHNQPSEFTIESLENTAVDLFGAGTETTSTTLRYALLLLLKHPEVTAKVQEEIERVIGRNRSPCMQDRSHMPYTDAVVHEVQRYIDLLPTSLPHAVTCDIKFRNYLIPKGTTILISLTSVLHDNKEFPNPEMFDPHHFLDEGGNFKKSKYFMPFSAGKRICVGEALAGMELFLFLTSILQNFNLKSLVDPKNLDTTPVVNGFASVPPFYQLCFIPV

Sequence of Luciferin 4-monooxygenase (P08659 whole entry): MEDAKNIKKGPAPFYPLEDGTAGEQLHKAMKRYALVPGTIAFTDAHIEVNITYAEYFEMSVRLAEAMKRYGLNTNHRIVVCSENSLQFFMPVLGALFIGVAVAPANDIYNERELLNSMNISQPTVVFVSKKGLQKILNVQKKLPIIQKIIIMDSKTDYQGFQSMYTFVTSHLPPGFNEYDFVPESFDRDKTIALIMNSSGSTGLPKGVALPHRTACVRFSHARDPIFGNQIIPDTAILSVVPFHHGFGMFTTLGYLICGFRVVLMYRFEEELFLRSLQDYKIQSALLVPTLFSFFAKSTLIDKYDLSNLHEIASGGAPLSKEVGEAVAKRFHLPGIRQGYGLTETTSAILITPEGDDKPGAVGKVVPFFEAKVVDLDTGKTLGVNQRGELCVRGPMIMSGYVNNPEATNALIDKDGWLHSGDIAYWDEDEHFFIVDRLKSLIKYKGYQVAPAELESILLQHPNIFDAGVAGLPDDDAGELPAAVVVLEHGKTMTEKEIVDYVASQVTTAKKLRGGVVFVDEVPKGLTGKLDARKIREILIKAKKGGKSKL
Sequence of Cytochrome P450 2C19 (P33261 whole entry): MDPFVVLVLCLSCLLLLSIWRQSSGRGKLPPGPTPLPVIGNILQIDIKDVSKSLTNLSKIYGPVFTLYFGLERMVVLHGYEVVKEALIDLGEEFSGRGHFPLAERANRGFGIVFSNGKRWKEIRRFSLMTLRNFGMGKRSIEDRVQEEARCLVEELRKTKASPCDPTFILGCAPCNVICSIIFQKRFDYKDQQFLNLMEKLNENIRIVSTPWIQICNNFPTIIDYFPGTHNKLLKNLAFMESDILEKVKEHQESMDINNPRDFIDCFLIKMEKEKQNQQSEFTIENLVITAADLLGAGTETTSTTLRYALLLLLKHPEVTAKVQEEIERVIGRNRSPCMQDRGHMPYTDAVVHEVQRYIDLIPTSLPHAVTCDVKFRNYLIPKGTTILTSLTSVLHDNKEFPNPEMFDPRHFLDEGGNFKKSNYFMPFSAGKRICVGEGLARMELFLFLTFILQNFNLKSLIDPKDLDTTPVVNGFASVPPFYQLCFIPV
Sequence of Cytochrome P450 2D6 (P10635 whole entry): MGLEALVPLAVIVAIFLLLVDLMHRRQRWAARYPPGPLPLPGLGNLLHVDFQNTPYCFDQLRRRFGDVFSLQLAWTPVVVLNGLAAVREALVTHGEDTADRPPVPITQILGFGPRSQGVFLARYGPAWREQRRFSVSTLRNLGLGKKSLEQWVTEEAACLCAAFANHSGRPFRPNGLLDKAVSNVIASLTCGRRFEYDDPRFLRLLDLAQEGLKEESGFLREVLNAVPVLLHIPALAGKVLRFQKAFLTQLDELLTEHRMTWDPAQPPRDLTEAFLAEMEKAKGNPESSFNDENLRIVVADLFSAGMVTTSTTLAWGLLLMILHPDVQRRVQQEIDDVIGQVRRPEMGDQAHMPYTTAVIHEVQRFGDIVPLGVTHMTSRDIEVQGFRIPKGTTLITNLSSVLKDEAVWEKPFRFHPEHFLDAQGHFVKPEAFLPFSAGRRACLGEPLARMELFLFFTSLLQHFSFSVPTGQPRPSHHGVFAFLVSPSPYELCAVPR

Structure (SMILES) | EC50 [1] | EC50 [2] | EC50 [3] | CC50 [4] | also measured
CC(=O)c1ccc(NC2CC(O)C(O)CO2)cc1 (stereo not given) | > 120 µM (not active) | > 120 µM (not active) | 16.1 µM (active) | – | –
COc1ccc2c(c1)CCc1cnc(N)nc1-2 | – | – | – | 24.4 µM (active) | –
CCOC(=O)C1=C(CN2CCN(C(=O)c3ccco3)CC2)NC(=O)NC1c1ccccc1 (stereo not given) | 42.2 µM (active) | > 120 µM (not active) | > 120 µM (not active) | – | –
O=C(c1cccs1)N1N=C(c2ccccc2)CC1c1ccccc1 (stereo not given) | – | – | – | – | EC50 [5]: 6.85 µM (active); EC50 (Streptokinase A): > 150 µM (not active); EC50 (Streptococcus): 16.2 µM (active)
Cc1ccc(CN=C(N)Nc2nc(C)cc(C)n2)cc1 | > 120 µM (not active) | 9.36 µM (active) | 7.78 µM (active) | – | –
Cn1c(SCC(=O)NC2(C#N)CCCCC2)nnc1-c1cccnc1 | – | – | – | – | EC50 [5]: > 150 µM (not active); EC50 (Streptokinase A): > 150 µM (not active); EC50 (Streptococcus): > 150 µM (not active)
N=C(NOC(=O)c1ccc(Cl)cc1)c1ccccn1 | – | – | – | 16.4 µM (active) | EC50 [6]: 1.53 µM (active); EC50 [7]: 7.38 µM (active)
Cc1cc(C)n(-c2nc3ccccc3c(=O)n2OCC(=O)OCc2ccccc2)n1 | 19.3 µM (active) | 17.6 µM (active) | > 120 µM (not active) | – | –
Cc1ccc(C#CC[N+](C)(C)CC#Cc2ccccc2)cc1 | > 120 µM (not active) | > 120 µM (not active) | > 120 µM (not active) | – | EC50 [8]: 1.92 µM (active); EC50 [9]: > 60 µM (not active)
CCCCOC(=O)c1ccc(NC(=S)N2CCN(c3ncc4c(=O)c(C(=O)O)cn(CC)c4n3)CC2)cc1 | – | – | – | – | EC50 [5]: 0.801 µM (active); EC50 (Streptokinase A): > 150 µM (not active); EC50 (Streptococcus): 2.62 µM (active)
Cc1ccc2c(CSc3nc4ccccc4c(=O)n3CCCO)cc(=O)oc2c1C | – | – | – | 30.5 µM (active) | –
CC(C)c1ccc(NC(=O)C2CCCN(S(=O)(=O)c3ccc4c(c3)C(C)(C)C(=O)N4C)C2)cc1 (stereo not given) | – | – | – | 17.6 µM (active) | –
CC(C)CC(=O)Nc1cccc(-c2csc(-c3ccccc3)n2)c1 | – | – | – | 17.9 µM (active) | –
CCn1c(=O)c(C(=O)NNC(=O)Cc2ccccc2)c(O)c2ccccc21 | – | – | – | – | EC50 [5]: 9.03 µM (active); EC50 (Streptokinase A): > 150 µM (not active); EC50 (Streptococcus): > 150 µM (not active)
Cc1ccc(CNC(=O)C2CCN(S(=O)(=O)c3ccc4c(c3)CC(C)N4C(=O)C3CCC3)CC2)o1 (stereo not given) | 13 µM (active) | > 120 µM (not active) | 12.3 µM (active) | – | –
COCCNC(=O)Nc1ccc2nc(-c3cccs3)c(-c3cccs3)nc2c1 | – | – | – | 33.1 µM (active) | –
COc1ccc(-c2cc(C(=O)N/N=C(\C)c3ccco3)c3ccccc3n2)c(OC)c1 | – | – | – | – | EC50 [10]: > 300 µM (not active); EC50 [5]: > 150 µM (not active); EC50 [11]: > 300 µM (not active); EC50 (Streptokinase A): > 150 µM (not active); EC50 (Streptococcus): > 150 µM (not active)
Cc1ccc2c(c1)-c1c(ssc1=S)C(C)(C)N2C(=O)CSc1nncn1C | 46.1 µM (active) | > 120 µM (not active) | > 120 µM (not active) | – | AC50 [12]: 6.63 µM (active); EC50 (Protein RecA): 9.47 µM (active)
C=CCOc1cccc(/C=C2\C(=O)N(Cc3ccc(C)cc3)C(C)=C2C(=O)OC)c1 | – | – | – | 29.7 µM (active) | AC50 [13]: 5.38 µM (active)
Cc1cc(C)c2nc(SCCc3ccccc3)nc(C)c2c1 | – | – | – | – | EC50 [5]: 33.4 µM (active); EC50 (Streptokinase A): 12.5 µM (active); EC50 (Streptococcus): > 150 µM (not active)
Cc1c(N=C2N=C(NC(=O)c3cccs3)c3ccccc32)c(=O)n(-c2ccccc2)n1C | – | – | – | 18.7 µM (active) | –
Cc1ccc(/C=C/C(=O)c2nc3ccccc3[nH]2)cc1 | – | – | – | 46.1 µM (active) | AC50 (Cytochrome P450 2C19): 0.0158 µM (inconclusive); AC50 (Cytochrome P450 2D6): 28.2 µM (inconclusive); AC50 (Cytochrome P450 2C9): 7.94 µM (inconclusive)

— ChEMBL document CHEMBL1201862, “PubChem BioAssay data set” (2004)
